According to patent US6372779B1, “Anti-inflammatory compounds” (Ortho Pharmaceutical Corporation, priority 1997, dated 2002):
“Also recorded” adds a separate entry of the source.

Experiments:
[1] = system: oxazolone-induced ear swelling in CD-1 mice; test: mouse oxazolone-induced contact hypersensitization (MOCH), ear swelling; type: in vivo; details: for inhibition in vivo at 1 mg: topical to ear, mouse, 24 hours after oxazolone challenge, read-out: Oxazolone Ear Swelling (MOCH) % inhibition vs. Vehicle at 1 mg; for topical antiinflammatory activity in the oxazolone model (in words): mouse ear
Description: Several triphenylpropanamide compounds of this invention, having varying affinities for the human glucocorticoid receptor, were tested for topical antiinflammatory activity in mouse ear inflammation models. […] Compounds having receptor affinities closer to hydrocortisone were as nearly active as hydrocortisone in suppressing mouse oxazolone-induced contact hypersensitization (MOCH) and phorbol ester-induced ear edema. The in vivo studies of this example were conducted as follows.
In determining the MOCH using the compounds of this invention, albino male CD-1 mice, 7-9 weeks old were induced on the shaved abdomen with 50 μl of 3% oxazolone in acetone/corn oil (Day 0). On Day 5, a 20 μl volume of 2% oxazolone in acetone was applied to the dorsal left ear of the mouse. Compounds (made in ethanol/propylene glycol, 70:30) were applied to the left ear in 20 μl volume, one hour after oxazolone challenge. The right ear was not treated. The mice were sacrificed by carbon dioxide inhalation 24 hours after oxazolone challenge, the left and right ears were removed and a 7 mm biopsy was removed from each ear and weighed. The difference in biopsy weights between the right and left ears was calculated. Antiinflammatory effects of compounds were evident as an inhibition of the increase in ear weight.

Row | Compound | melting point [°C] | inhibition in vivo at 1 mg [1] [%] | topical antiinflammatory activity in the oxazolone model (in words) [1]
1 | O=C(Cc1ccccc1Cl)NCC(c1ccccc1)C(c1ccccc1)c1ccccc1 (stereo not shown) [Compound 2] | 140.5 to 141.2 | 4 | –
2 | O=C(Cc1ccc(Cl)cc1)NCC(c1ccccc1)C(c1ccccc1)c1ccccc1 (stereo not shown) [Compound 3] | 168.4 to 170.9 | – | –
3 | Cc1ccc(CC(=O)NCC(c2ccccc2)C(c2ccccc2)c2ccccc2)cc1 (stereo not shown) [Compound 4] | 142.3 to 143.6 | 1 | –
4 | COc1ccc(CC(=O)NCC(c2ccccc2)C(c2ccccc2)c2ccccc2)cc1 (stereo not shown) [Compound 6] | 157 to 159 | 38 | –
5 | COc1ccc(CC(=O)NCC(c2ccccc2)C(c2ccccc2)c2ccccc2)cc1OC (stereo not shown) [Compound 7] | 123 to 124.5 | – | –
6 | O=C(Cc1c(Cl)cccc1Cl)NCC(c1ccccc1)C(c1ccccc1)c1ccccc1 (stereo not shown) [Compound 8] | 165.2 to 166.5 | – | –
7 | O=C(Cc1ccc(Cl)c(Cl)c1)NCC(c1ccccc1)C(c1ccccc1)c1ccccc1 (stereo not shown) [Compound 9] | 65 to 68 | 18 | –
8 | O=C(Cc1ccccc1C(F)(F)F)NCC(c1ccccc1)C(c1ccccc1)c1ccccc1 (stereo not shown) [Compound 10] | 109 to 111.5 | 19 | –
9 | O=C(Cc1cccc(C(F)(F)F)c1)NCC(c1ccccc1)C(c1ccccc1)c1ccccc1 (stereo not shown) [Compound 11] | 108.8 to 111.3 | 33 | –
10 | O=C(Cc1ccc(C(F)(F)F)cc1)NCC(c1ccccc1)C(c1ccccc1)c1ccccc1 (stereo not shown) [Compound 12] | 119.5 to 120.3 | 36 | –
11 | O=C(NCC(c1ccccc1)C(c1ccccc1)c1ccccc1)C(c1ccccc1)c1ccccc1 (stereo not shown) [Compound 13] | 178.7 to 179.8 | 10 | –
12 | O=C(Cc1ccccc1)NCC(c1ccc(Cl)cc1)C(c1ccccc1)c1ccccc1 (stereo not shown) [Compound 14] | 151.5 to 152.7 | 11 | –
13 | O=C(Cc1ccccc1)NCC(c1ccccc1)C(c1ccc(F)cc1)c1ccc(F)cc1 (stereo not shown) [Compound 15] | – | – | moderate topical activity
14 | O=C(Cc1ccccc1Cl)NCC(c1ccccc1)C(c1ccc(F)cc1)c1ccc(F)cc1 (stereo not shown) [Compound 16] | 127.3 to 129.4 | 46 | moderate topical activity
15 | O=C(CCc1ccccc1)NCC(c1ccccc1)C(c1ccccc1)c1ccccc1 (stereo not shown) [Compound 19] | 107.4 to 109 | 2 | –
16 | COc1ccccc1CCC(=O)NCC(c1ccccc1)C(c1ccccc1)c1ccccc1 (stereo not shown) [Compound 20] | 137 to 140 | 32 | –
17 | O=C(CCc1ccccc1Cl)NCC(c1ccccc1)C(c1ccccc1)c1ccccc1 (stereo not shown) [Compound 22] | 135 to 135.8 | 15 | –
18 | COc1ccccc1CCC(=O)NCC(c1ccccc1)C(c1ccc(F)cc1)c1ccc(F)cc1 (stereo not shown) [Compound 23] | 78.9 to 80.9 | 41 | moderate topical activity
19 | O=C(CCCc1ccccc1)NCC(c1ccccc1)C(c1ccccc1)c1ccccc1 (stereo not shown) [Compound 24] | 78.1 to 81 | 21 | –
20 | O=S(=O)(Cc1ccccc1)NCC(c1ccccc1)C(c1ccccc1)c1ccccc1 (stereo not shown) [Compound 25] | 172.9 to 174.2 | 9 | –
21 | Cc1ccc(S(=O)(=O)NCC(c2ccccc2)C(c2ccccc2)c2ccccc2)cc1 (stereo not shown) [Compound 26] | 139.7 to 142.1 | -5 | –
22 | O=C(CS(=O)(=O)c1ccccc1)NCC(c1ccccc1)C(c1ccccc1)c1ccccc1 (stereo not shown) [Compound 27] | 186.9 to 187.5 | 20 | –
23 | Cc1ccc(S(=O)(=O)CC(=O)NCC(c2ccccc2)C(c2ccccc2)c2ccccc2)cc1 (stereo not shown) [Compound 28] | 190.3 to 191.9 | 28 | –
24 | O=C(Cc1cccs1)NCC(c1ccccc1)C(c1ccccc1)c1ccccc1 (stereo not shown) [Compound 29, N-(2-thiophene)acetyl-2,3,3-triphenylpropylamine] | 130 to 132 | 83 | equiactive with hydrocortisone; also recorded: inhibited ear swelling in a dose-dependent manner
25 | Cc1ccc(C(=O)NCC(c2ccccc2)C(c2ccccc2)c2ccccc2)s1 (stereo not shown) [Compound 30] | 183.5 to 185 | 21 | –
26 | O=C(Cc1cccs1)NCC(c1ccccc1)C(c1ccc(F)cc1)c1ccc(F)cc1 (stereo not shown) [Compound 31] | 84.9 to 85.3 | 14 | –
27 | Cc1ccc(CC(=O)NCC(c2ccccc2)C(c2ccc(F)cc2)c2ccc(F)cc2)s1 (stereo not shown) [Compound 32] | 127.9 to 128.9 | 83 | equiactive with hydrocortisone; also recorded: inhibited ear swelling in a dose-dependent manner

Row | Compound | melting point [°C] | inhibition in vivo at 1 mg [1] [%] | topical antiinflammatory activity in the oxazolone model (in words) [1]
28 | O=C(Cc1cccs1)NCC(c1ccc(I)cc1)C(c1ccccc1)c1ccccc1 (stereo not shown) [Compound 33] | 127 to 130 | 74 | –
29 | O=C(Cc1cccs1)NCC(c1ccc(Cl)cc1)C(c1ccccc1)c1ccccc1 (stereo not shown) [Compound 34] | 126.3 to 127 | 29 | –
30 | O=C(Cc1ccsc1)NCC(c1ccc(Cl)cc1)C(c1ccccc1)c1ccccc1 (stereo not shown) [Compound 35] | 126.4 to 127.9 | 36 | –
31 | O=C(Cc1ccsc1)NCC(c1ccccc1)C(c1ccccc1)c1ccccc1 (stereo not shown) [Compound 36] | 135 to 138 | 13 | –
32 | O=C(CCCc1cccs1)NCC(c1ccccc1)C(c1ccccc1)c1ccccc1 (stereo not shown) [Compound 37] | 105.5 to 106.9 | 25 | –
33 | O=C(C=Cc1cccs1)NCC(c1ccccc1)C(c1ccccc1)c1ccccc1 (stereo not shown) [Compound 38] | 217.3 to 218.9 | 13 | –
34 | O=C(C=Cc1ccsc1)NCC(c1ccccc1)C(c1ccccc1)c1ccccc1 (stereo not shown) [Compound 39] | 204.8 to 206.5 | 24 | –
35 | O=S(=O)(NCC(c1ccccc1)C(c1ccccc1)c1ccccc1)c1cccs1 (stereo not shown) [Compound 40] | 169 to 170.9 | 15 | –
36 | O=S(=O)(NCC(c1ccc(Cl)cc1)C(c1ccccc1)c1ccccc1)c1cccs1 (stereo not shown) [Compound 41] | 180.4 to 181.9 | 3 | –
37 | O=C(NCC(c1ccccc1)C(c1ccccc1)c1ccccc1)c1ccsc1 (stereo not shown) [Compound 42] | 153.5 to 154.7 | 27 | –
38 | O=C(NCC(c1ccccc1)C(c1ccccc1)c1ccccc1)c1cc2ccccc2s1 (stereo not shown) [Compound 43] | 218.3 to 218.8 | 47 | –
39 | CN(CC(c1ccccc1)C(c1ccccc1)c1ccccc1)C(=O)Cc1cccs1 (stereo not shown) [Compound 44] | 107 to 109.3 | 3 | –
40 | O=C(NCC(c1ccccc1)C(c1ccccc1)c1ccccc1)c1cccs1 (stereo not shown) [Compound 45] | 139 to 142 | 31 | –
41 | O=C(Cc1c[nH]c2ccccc12)NCC(c1ccccc1)C(c1ccccc1)c1ccccc1 (stereo not shown) [Compound 47] | 89 to 93 | 51 | –
42 | O=C(CCc1c[nH]c2ccccc12)NCC(c1ccccc1)C(c1ccccc1)c1ccccc1 (stereo not shown) [Compound 48] | 100 to 114 | 22 | –
43 | O=C(Cc1ccccn1)NCC(c1ccccc1)C(c1ccccc1)c1ccccc1 (stereo not shown) [Compound 49] | 120.1 to 121.7 | 20 | –
44 | O=C(NCC(c1ccccc1)C(c1ccccc1)c1ccccc1)Nc1ccccc1Cl (stereo not shown) [Compound 52] | 210 to 211 | – | –
45 | O=C(NCC(c1ccccc1)C(c1ccccc1)c1ccccc1)Nc1ccccc1F (stereo not shown) [Compound 53] | 190 to 191 | 24 | –
46 | O=C(NCc1ccccc1)NCC(c1ccccc1)C(c1ccccc1)c1ccccc1 (stereo not shown) [Compound 54] | 170 to 171 | 10 | –
47 | O=C(NCc1ccc(Cl)cc1Cl)NCC(c1ccccc1)C(c1ccccc1)c1ccccc1 (stereo not shown) [Compound 55] | 166 to 167 | 18 | –
48 | O=C(NCC(c1ccccc1)C(c1ccccc1)c1ccccc1)Oc1ccc2ccccc2c1 (stereo not shown) [Compound 59] | 151 to 152 | – | –
49 | O=C(Cc1cccs1)NCC(c1ccccc1)C1c2ccccc2-c2ccccc21 (stereo not shown) [Compound 71] | 128.7 to 130.5 | – | –
50 | O=C(Cc1ccccc1)NCC(c1ccccc1)C1c2ccccc2CCc2ccccc21 (stereo not shown) [Compound 73] | 172.7 to 174.6 | – | –
51 | O=C(Cc1ccccc1)NCC1(c2ccccc2)CC1(c1ccccc1)c1ccccc1 (stereo not shown) [Compound 78] | 150 to 152 | – | –
52 | CC(C)(C)C(=O)NCC1(c2ccccc2)CC1(c1ccccc1)c1ccccc1 (stereo not shown) [Compound 86] | 121 to 122 | – | –
53 | O=C(Cc1ccc(Cl)cc1)NCC(c1ccc2c(c1)OCO2)C(c1ccccc1)c1ccccc1 (stereo not shown) [Compound 98] | – | – | equiactive with hydrocortisone
54 | C[C@]12CCC(=O)C=C1CC[C@@H]1[C@@H]2[C@@H](O)C[C@@]2(C)[C@H]1CC[C@]2(O)C(=O)CO [hydrocortisone, reference compound] | – | 75 to 85 | –
